# Test results taken from patent US20260184693A1, “INHIBITORS OF SOLUTE CARRIER FAMILY 6A MEMBER 19 (SLC6A19) AND METHODS OF USE THEREOF” (Maze Therapeutics, Inc., priority 2022, published 2026).
# Target: T1, human SLC6A19 (Homo sapiens, UniProt Q695T7)
# T1 construct: expressed in transfected cells
# T1 sequence (Q695T7 1-634): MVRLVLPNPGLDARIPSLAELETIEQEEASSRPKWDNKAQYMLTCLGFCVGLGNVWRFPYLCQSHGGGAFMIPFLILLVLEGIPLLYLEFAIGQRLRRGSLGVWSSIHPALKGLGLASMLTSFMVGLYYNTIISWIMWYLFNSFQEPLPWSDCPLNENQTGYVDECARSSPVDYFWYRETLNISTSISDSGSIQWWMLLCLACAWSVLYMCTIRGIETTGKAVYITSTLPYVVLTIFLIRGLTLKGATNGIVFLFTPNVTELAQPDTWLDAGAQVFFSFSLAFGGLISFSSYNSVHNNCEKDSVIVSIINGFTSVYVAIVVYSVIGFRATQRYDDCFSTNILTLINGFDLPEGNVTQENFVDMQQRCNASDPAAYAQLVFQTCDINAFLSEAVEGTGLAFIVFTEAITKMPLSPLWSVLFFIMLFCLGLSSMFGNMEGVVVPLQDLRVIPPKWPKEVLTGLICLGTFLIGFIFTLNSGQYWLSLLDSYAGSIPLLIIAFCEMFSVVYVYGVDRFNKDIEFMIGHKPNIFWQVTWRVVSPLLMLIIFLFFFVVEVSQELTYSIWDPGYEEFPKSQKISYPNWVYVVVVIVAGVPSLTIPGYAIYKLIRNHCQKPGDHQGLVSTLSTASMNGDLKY
# T1 sequence (Q9HBJ8 15-222 partner): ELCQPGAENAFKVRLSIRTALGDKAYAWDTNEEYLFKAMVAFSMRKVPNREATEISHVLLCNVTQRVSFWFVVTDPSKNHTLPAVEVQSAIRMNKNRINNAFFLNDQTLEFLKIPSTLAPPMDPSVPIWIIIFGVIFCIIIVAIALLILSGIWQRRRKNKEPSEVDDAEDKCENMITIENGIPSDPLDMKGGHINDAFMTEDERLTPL
# Experiment: Example B2: 13C6,15N-isoleucine uptake, RapidFire mass spectrometry, in CHO cells with doxycycline-inducible expression of human SLC6A19 and TMEM27
# Assay type: cell-based
# Conditions: read-out: SLC6A19_RapidFire Uptake Assay IC50
# Procedure, shortened: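 CHO cells were induced with doxycycline to express human SLC6A19 with TMEM27, then pre-incubated 20 min at 37 °C with compounds (2-fold, 10-point, duplicate). Uptake of 13C6,15N-isoleucine (2 mM solution added) over a further 20 min was measured by RapidFire mass spectrometry, using 13C-leucine as internal standard.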
row,IC50 [nM],SMILES
1,493,"CC(=O)N1CCC[C@@H](N(C)C(=O)NCc2cc3cc(F)ccc3[nH]2)C1 [Compound 161, (R)-1-(1-acetylpiperidin-3-yl)-3-((5-fluoro-1H-indol-2-yl)methyl)-1-methylurea]"
2,6780,"COc1ccc2cc(CNC(=O)N(C)[C@@H]3CCCN(C(C)=O)C3)[nH]c2c1 [Compound 162, (R)-1-(1-acetylpiperidin-3-yl)-3-((6-methoxy-1H-indol-2-yl)methyl)-1-methylurea]"
3,351,"CC(=O)N1CCC[C@@H](N(C)C(=O)NCc2cc3cc(F)c(Cl)cc3[nH]2)C1 [Compound 164, (R)-1-(1-acetylpiperidin-3-yl)-3-((6-chloro-5-fluoro-1H-indol-2-yl)methyl)-1-methylurea]"
4,8030,"CC(=O)N1CCC[C@@H](N(C)C(=O)NCc2cc3[nH]ccc3cc2Cl)C1 [Compound 165, (R)-1-(1-acetylpiperidin-3-yl)-3-((5-chloro-1H-indol-6-yl)methyl)-1-methylurea]"
5,168,"CCN(C(=O)NCc1cc2cc(F)ccc2[nH]1)[C@@H]1CCCN(C(C)=O)C1 [Compound 166, (R)-1-(1-acetylpiperidin-3-yl)-1-ethyl-3-((5-fluoro-1H-indol-2-yl)methyl)urea]"
6,103,"CCN(C(=O)NCc1cc2cc(Cl)c(OC)cc2[nH]1)[C@@H]1CCCN(C(C)=O)C1 [Compound 167, (R)-1-(1-acetylpiperidin-3-yl)-3-((5-chloro-6-methoxy-1H-indol-2-yl)methyl)-1-ethylurea]"
7,651,"CC(=O)N1CCC[C@@H](N(C)C(=O)NCc2cc3[nH]cc(C)c3cc2F)C1 [Compound 168, (R)-1-(1-acetylpiperidin-3-yl)-3-((5-fluoro-3-methyl-1H-indol-6-yl)methyl)-1-methylurea]"
8,97.8,"CCN(C(=O)NCc1cc2cc(F)c(F)cc2[nH]1)[C@@H]1CCCN(C(C)=O)C1 [Compound 169, (R)-1-(1-acetylpiperidin-3-yl)-3-((5,6-difluoro-1H-indol-2-yl)methyl)-1-ethylurea]"
9,45.1,"CCN(C(=O)NCc1cc2cc(Cl)c(F)cc2[nH]1)[C@@H]1CCCN(C(C)=O)C1 [Compound 170, (R)-1-(1-acetylpiperidin-3-yl)-3-((5-chloro-6-fluoro-1H-indol-2-yl)methyl)-1-ethylurea]"
10,10900,"CC(=O)N1CCC[C@@H](N(C)C(=O)NCc2cc3ccc(C#N)cc3[nH]2)C1 [Compound 172, (R)-1-(1-acetylpiperidin-3-yl)-3-((6-cyano-1H-indol-2-yl)methyl)-1-methylurea]"
11,314,"CN(C(=O)NCc1cc2cc(Cl)ccc2[nH]1)[C@@H]1CCCN(C(=O)N2CCC2)C1 [Compound 173, (R)-1-(1-(azetidine-1-carbonyl)piperidin-3-yl)-3-((5-chloro-1H-indol-2-yl)methyl)-1-methylurea]"
12,2790,"CC(=O)N1CCC[C@@H](N(C)C(=O)NCc2cc3cc(C)c(C#N)cc3[nH]2)C1 [Compound 174, (R)-1-(1-acetylpiperidin-3-yl)-3-((6-cyano-5-methyl-1H-indol-2-yl)methyl)-1-methylurea]"
13,20900,"CC(=O)N1CCC[C@@H](N(C)C(=O)NCc2cc3cc(C)cc(CO)c3[nH]2)C1 [Compound 175, (R)-1-(1-acetylpiperidin-3-yl)-3-((7-(hydroxymethyl)-5-methyl-1H-indol-2-yl)methyl)-1-methylurea]"
14,30.7,"CC(=O)N1CCC[C@@H](N(C)C(=O)NCc2[nH]c3ccc(Cl)cc3c2Cl)C1 [Compound 176, (R)-1-(1-acetylpiperidin-3-yl)-3-((3,5-dichloro-1H-indol-2-yl)methyl)-1-methylurea]"
15,122,"Cc1cc(N2CCC[C@@H](N(C)C(=O)NCc3cc4cc(Cl)ccc4[nH]3)C2)no1 [Compound 177, (R)-3-((5-chloro-1H-indol-2-yl)methyl)-1-methyl-1-(1-(5-methylisoxazol-3-yl)piperidin-3-yl)urea]"
16,1570,"CNc1cc(Cl)cc2cc(CNC(=O)N(C)[C@@H]3CCCN(C(C)=O)C3)[nH]c12 [Compound 178, (R)-1-(1-acetylpiperidin-3-yl)-3-((5-chloro-7-(methylamino)-1H-indol-2-yl)methyl)-1-methylurea]"
17,1210,"COc1cc2[nH]c(CNC(=O)N(C)[C@@H]3CCCN(C(C)=O)C3)cc2cc1C [Compound 179, (R)-1-(1-acetylpiperidin-3-yl)-3-((6-methoxy-5-methyl-1H-indol-2-yl)methyl)-1-methylurea]"

row,IC50 [nM],SMILES
1,2790,"CN(C(=O)NCc1cc2cc(Cl)ccc2[nH]1)[C@@H]1CCCN(C(=O)C(C)(C)O)C1 [Compound 180, (R)-3-((5-chloro-1H-indol-2-yl)methyl)-1-(1-(2-hydroxy-2-methylpropanoyl)piperidin-3-yl)-1-methylurea]"
2,795,"CN(C(=O)NCc1cc2cc(Cl)ccc2[nH]1)[C@@H]1CCCN(C(=O)N2CCCC2)C1 [Compound 181, (R)-3-((5-chloro-1H-indol-2-yl)methyl)-1-methyl-1-(1-(pyrrolidine-1-carbonyl)piperidin-3-yl)urea]"
3,2930,"CC(=O)N1CCC[C@@H](N(C)C(=O)NCc2cc3cc(Cl)c(C#N)cc3[nH]2)C1 [Compound 182, (R)-1-(1-acetylpiperidin-3-yl)-3-((5-chloro-6-cyano-1H-indol-2-yl)methyl)-1-methylurea]"
4,852,"C[C@H](O)C(=O)N1CCC[C@@H](N(C)C(=O)NCc2cc3cc(Cl)ccc3[nH]2)C1 [Compound 183, 3-((5-chloro-1H-indol-2-yl)methyl)-1-((R)-1-((S)-2-hydroxypropanoyl)piperidin-3-yl)-1-methylurea]"
5,3970,"CC(=O)N1CCC[C@@H](N(C)C(=O)NCc2cc3[nH]ccc3cc2F)C1 [Compound 184, (R)-1-(1-acetylpiperidin-3-yl)-3-((5-fluoro-1H-indol-6-yl)methyl)-1-methylurea]"
6,4400,"CC(=O)N1CCC(C(=O)N2CCC[C@@H](N(C)C(=O)NCc3cc4cc(Cl)ccc4[nH]3)C2)C1 (stereo partly drawn) [Compound 185, 1-((3R)-1-(1-acetylpyrrolidine-3-carbonyl)piperidin-3-yl)-3-((5-chloro-1H-indol-2-yl)methyl)-1-methylurea]"
7,5600,"C[C@@H](O)C(=O)N1CCC[C@@H](N(C)C(=O)NCc2cc3cc(Cl)ccc3[nH]2)C1 [Compound 186, 3-((5-chloro-1H-indol-2-yl)methyl)-1-((R)-1-((R)-2-hydroxypropanoyl)piperidin-3-yl)-1-methylurea]"
8,4670,"CC(=O)N1CCC[C@@H](N(C)C(=O)NCc2ccc3c(C)c[nH]c3c2)C1 [Compound 223, (R)-1-(1-acetylpiperidin-3-yl)-1-methyl-3-((3-methyl-1H-indol-6-yl)methyl)urea]"
9,1650,"COc1ccc2[nH]c(CNC(=O)N(C)[C@@H]3CCCN(C(C)=O)C3)cc2c1 [Compound 224, (R)-1-(1-acetylpiperidin-3-yl)-3-((5-methoxy-1H-indol-2-yl)methyl)-1-methylurea]"
10,2960,"CC(=O)N1CCC[C@@H](N(C)C(=O)NCc2ccc3c(C)c(C)[nH]c3c2)C1 [Compound 225, (R)-1-(1-acetylpiperidin-3-yl)-3-((2,3-dimethyl-1H-indol-6-yl)methyl)-1-methylurea]"
11,209,"CC(=O)N1CCC[C@@H](N(C)C(=O)NCc2cc3cc(Cl)c(C)cc3[nH]2)C1 [Compound 226, (R)-1-(1-acetylpiperidin-3-yl)-3-((5-chloro-6-methyl-1H-indol-2-yl)methyl)-1-methylurea]"
12,327,"CC(=O)N1CCC[C@@H](N(C)C(=O)NCc2cc3cc(Cl)cc(C)c3[nH]2)C1 [Compound 227, (R)-1-(1-acetylpiperidin-3-yl)-3-((5-chloro-7-methyl-1H-indol-2-yl)methyl)-1-methylurea]"
13,2210,"CC(=O)N1CCC[C@@H](N(C)C(=O)NCc2cc3cc(C#N)ccc3[nH]2)C1 [Compound 228, (R)-1-(1-acetylpiperidin-3-yl)-3-((5-cyano-1H-indol-2-yl)methyl)-1-methylurea]"
14,108,"CC(=O)N1CCC[C@@H](N(C)C(=O)NCc2[nH]c3ccc(Cl)cc3c2C)C1 [Compound 229, (R)-1-(1-acetylpiperidin-3-yl)-3-((5-chloro-3-methyl-1H-indol-2-yl)methyl)-1-methylurea]"
15,12800,"CC(=O)N1CCC[C@@H](N(C)C(=O)NCc2cc3cc(Cl)cc(CO)c3[nH]2)C1 [Compound 230, (R)-1-(1-acetylpiperidin-3-yl)-3-((5-chloro-7-(hydroxymethyl)-1H-indol-2-yl)methyl)-1-methylurea]"
16,1060,"CC(=O)N1CCC[C@@H](N(C)C(=O)NCc2cc3cc(Cl)cc(O)c3[nH]2)C1 [Compound 231, (R)-1-(1-acetylpiperidin-3-yl)-3-((5-chloro-7-hydroxy-1H-indol-2-yl)methyl)-1-methylurea]"
